Measurements reported in patent US8192962B2, “Processes for detecting toxic substances” (Daikin Industries, Ltd., priority 2001, dated 2012).

System: Genes belonging to other category
Assay: DNA chip mRNA expression in yeast, genes belonging to other category (Table 9)
Format: cell-based, Saccharomyces cerevisiae S288C
Outline: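 Whole-genome yeast DNA chip hybridization (65° C., >12 h) of Cy-labeled cDNA from S288C cells exposed 2 h at 25° C. to a sub-lethal toxicant dose in YPD; value is intensity relative to chemical-free control.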

With [Cl][Hg][Cl] [(3), HgCl2] the “The level of expressed mRNA in the presence of chemical substance/The level of expressed mRNA in the absence of chemical substance” value (yeast gene YKL008C) was 2.0, the “The level of expressed mRNA in the presence of chemical substance/The level of expressed mRNA in the absence of chemical substance” value (yeast gene YKL013C) was 1.4 and the “The level of expressed mRNA in the presence of chemical substance/The level of expressed mRNA in the absence of chemical substance” value (yeast gene YKL039W) was 2.4. For the same molecule, the “The level of expressed mRNA in the presence of chemical substance/The level of expressed mRNA in the absence of chemical substance” value (yeast gene YKL096W) was 8.1, the “The level of expressed mRNA in the presence of chemical substance/The level of expressed mRNA in the absence of chemical substance” value (yeast gene YKL165C) was 1.1 and the “The level of expressed mRNA in the presence of chemical substance/The level of expressed mRNA in the absence of chemical substance” value (yeast gene YKL193C) was 1.1. For the same molecule, the “The level of expressed mRNA in the presence of chemical substance/The level of expressed mRNA in the absence of chemical substance” value (yeast gene YLR120C) was 2.4, the “The level of expressed mRNA in the presence of chemical substance/The level of expressed mRNA in the absence of chemical substance” value (yeast gene YLR136C) was 0.6 and the “The level of expressed mRNA in the presence of chemical substance/The level of expressed mRNA in the absence of chemical substance” value (yeast gene YLR178C) was 8.8. For the same molecule, the “The level of expressed mRNA in the presence of chemical substance/The level of expressed mRNA in the absence of chemical substance” value (yeast gene YLR250W) was 1.0, the “The level of expressed mRNA in the presence of chemical substance/The level of expressed mRNA in the absence of chemical substance” value (yeast gene YLR327C) was 14.4 and the “The level of expressed mRNA in the presence of chemical substance/The level of expressed mRNA in the absence of chemical substance” value (yeast gene YLR356W) was 4.9. For the same molecule, the “The level of expressed mRNA in the presence of chemical substance/The level of expressed mRNA in the absence of chemical substance” value (yeast gene YLR362W) was 1.0, the “The level of expressed mRNA in the presence of chemical substance/The level of expressed mRNA in the absence of chemical substance” value (yeast gene YLR391W) was 2.9 and the “The level of expressed mRNA in the presence of chemical substance/The level of expressed mRNA in the absence of chemical substance” value (yeast gene YLR429W) was 0.6. For the same molecule, the “The level of expressed mRNA in the presence of chemical substance/The level of expressed mRNA in the absence of chemical substance” value (yeast gene YMR004W) was 1.3, the “The level of expressed mRNA in the presence of chemical substance/The level of expressed mRNA in the absence of chemical substance” value (yeast gene YMR094W) was 1.3 and the “The level of expressed mRNA in the presence of chemical substance/The level of expressed mRNA in the absence of chemical substance” value (yeast gene YMR104C) was 2.2. For the same molecule, the “The level of expressed mRNA in the presence of chemical substance/The level of expressed mRNA in the absence of chemical substance” value (yeast gene YMR219W) was 1.0, the “The level of expressed mRNA in the presence of chemical substance/The level of expressed mRNA in the absence of chemical substance” value (yeast gene YMR226C) was 1.4 and the “The level of expressed mRNA in the presence of chemical substance/The level of expressed mRNA in the absence of chemical substance” value (yeast gene YMR275C) was 1.2. For the same molecule, the “The level of expressed mRNA in the presence of chemical substance/The level of expressed mRNA in the absence of chemical substance” value (yeast gene YMR276W) was 1.5, the “The level of expressed mRNA in the presence of chemical substance/The level of expressed mRNA in the absence of chemical substance” value (yeast gene YMR314W) was 0.9 and the “The level of expressed mRNA in the presence of chemical substance/The level of expressed mRNA in the absence of chemical substance” value (yeast gene YNL006W) was 1.3. For the same molecule, the “The level of expressed mRNA in the presence of chemical substance/The level of expressed mRNA in the absence of chemical substance” value (yeast gene YNL007C) was 5.1, the “The level of expressed mRNA in the presence of chemical substance/The level of expressed mRNA in the absence of chemical substance” value (yeast gene YNL093W) was 0.4 and the “The level of expressed mRNA in the presence of chemical substance/The level of expressed mRNA in the absence of chemical substance” value (yeast gene YNL333W) was 1.7. For the same molecule, the “The level of expressed mRNA in the presence of chemical substance/The level of expressed mRNA in the absence of chemical substance” value (yeast gene YNR010W) was 0.5, the “The level of expressed mRNA in the presence of chemical substance/The level of expressed mRNA in the absence of chemical substance” value (yeast gene YNR069C) was 0.7 and the “The level of expressed mRNA in the presence of chemical substance/The level of expressed mRNA in the absence of chemical substance” value (yeast gene YOL013C) was 1.0. The “The level of expressed mRNA in the presence of chemical substance/The level of expressed mRNA in the absence of chemical substance” value (yeast gene YOL164W) was 1.0, the “The level of expressed mRNA in the presence of chemical substance/The level of expressed mRNA in the absence of chemical substance” value (yeast gene YOR036W) was 1.4 and the “The level of expressed mRNA in the presence of chemical substance/The level of expressed mRNA in the absence of chemical substance” value (yeast gene YOR117W) was 1.7. The “The level of expressed mRNA in the presence of chemical substance/The level of expressed mRNA in the absence of chemical substance” value (yeast gene YOR124C) was 1.3, the “The level of expressed mRNA in the presence of chemical substance/The level of expressed mRNA in the absence of chemical substance” value (yeast gene YOR132W) was 0.8 and the “The level of expressed mRNA in the presence of chemical substance/The level of expressed mRNA in the absence of chemical substance” value (yeast gene YOR157C) was 1.2. The “The level of expressed mRNA in the presence of chemical substance/The level of expressed mRNA in the absence of chemical substance” value (yeast gene YOR181W) was 1.1, the “The level of expressed mRNA in the presence of chemical substance/The level of expressed mRNA in the absence of chemical substance” value (yeast gene YOR185C) was 1.9 and the “The level of expressed mRNA in the presence of chemical substance/The level of expressed mRNA in the absence of chemical substance” value (yeast gene YOR198C) was 1.4. For the same molecule, the “The level of expressed mRNA in the presence of chemical substance/The level of expressed mRNA in the absence of chemical substance” value (yeast gene YOR259C) was 0.8, the “The level of expressed mRNA in the presence of chemical substance/The level of expressed mRNA in the absence of chemical substance” value (yeast gene YOR261C) was 0.6 and the “The level of expressed mRNA in the presence of chemical substance/The level of expressed mRNA in the absence of chemical substance” value (yeast gene YOR288C) was 1.1. The “The level of expressed mRNA in the presence of chemical substance/The level of expressed mRNA in the absence of chemical substance” value (yeast gene YOR355W) was 1.1, the “The level of expressed mRNA in the presence of chemical substance/The level of expressed mRNA in the absence of chemical substance” value (yeast gene YOR383C) was 2.6 and the “The level of expressed mRNA in the presence of chemical substance/The level of expressed mRNA in the absence of chemical substance” value (yeast gene YPL089C) was 0.5. The “The level of expressed mRNA in the presence of chemical substance/The level of expressed mRNA in the absence of chemical substance” value (yeast gene YPL109C) was 0.5, the “The level of expressed mRNA in the presence of chemical substance/The level of expressed mRNA in the absence of chemical substance” value (yeast gene YPL149W) was 0.6 and the “The level of expressed mRNA in the presence of chemical substance/The level of expressed mRNA in the absence of chemical substance” value (yeast gene YPL154C) was 4.2. The “The level of expressed mRNA in the presence of chemical substance/The level of expressed mRNA in the absence of chemical substance” value (yeast gene YPR103W) was 1.3 and the “The level of expressed mRNA in the presence of chemical substance/The level of expressed mRNA in the absence of chemical substance” value (yeast gene YPR108W) was 1.3.
